Experimental data taken from patent US11338025B2, “Vaccine therapy for treatment of endometrial and ovarian cancer” (The Henry M. Jackson Foundation for the Advancement of …, priority 2016, dated 2022).
Ends that are not written are not given here.

Assays:
[1] = system: tumor-associated lymphocyte (TAL); details: previous studies (Peoples et al. 1998); cited from earlier work
[2] = Local reactions (LR) 48-72 hours after booster; details: 500 mcg peptide + 250 mcg GM-CSF
Source text: Therefore, to assess the use of the attenuated E39′ peptide as a booster, E39-vaccinated patients described in Example 1 were randomized to receive either E39 or E39′ as a booster to determine the effect on long-term E39-specific immunity. Patients in the VG received six intradermal E39 injections as described in Example 1 as a primary vaccination schedule (PVS). At six months (B1) and at twelve months (B2) after completion of the PVS, patients received either 500 mcg of E39′ and 250 mcg GM-CSF or 500 mcg E39 and 250 mcg of GM-CSF as a booster.
Local reactions (LR) were recorded 48-72 hours after each booster. Immune response was determined by measurement of E39 specific CTL levels using a Dextramer reagents in accordance with the manufacturer's instructions (Immudex Limited, Copenhagen, Denmark) as previously described (e.g., Tario et al. Cytometry B Clin. Cytom. 2015; 88B:6-20; Baba J. Transl Med. 2010; 8:84), at RO (baseline pre-vaccination), RC1 (1 month after completion of PVS), RC6 (6 months after completion of PVS and before booster), RC7 (1 month after booster) and RC12 (6 months after booster and 12 months after completion of PVS).

[3] = Local and systemic toxicity (NCI CTCAE v4.03) of E39+GM-CSF vaccination; type: in vivo, human
Experimental: Standard local and systemic toxicities were collected and graded per the National Cancer Institute Common Terminology Criteria for Adverse Events, v4.03 toxicity scale. For the vaccine series (one vaccine/month for six months), patients were monitored closely for one hour after vaccine inoculation with questioning, serial exams and vital signs every 15 minutes to observe for a hypersensitivity reaction. Systemic toxicity and inoculation site local reactions were also determined after 48-72 hours.

## E41: FRα-derived immunogenic peptide (FRα 245-253) of previous studies (LLSLALMLL; UniProt P15328 245-253, looked up, fragment)
[1]
  effect on TAL proliferation and anti-tumor function: capable of enhancing tumor-associated lymphocyte (TAL) proliferation and anti-tumor function

## EIWTFSTKV [E39′, EIWTFSTKV]
[2]; B1 booster (6 months after PVS)
  average LR: 79.7±14.0 mm
[2]; B2 booster (12 months after PVS)
  average LR: 74.1±11.5 mm

## EIWTHSYKV [E39, EIWTHSYKV]
[3]; E39+GM-CSF, disease-free endometrial and ovarian cancer patients
  tolerability of the vaccine: well tolerated
[3]; in vivo
  Local and systemic toxicities: mild
  patients experiencing grade 3 toxicity: 1 patient
